This experiment deals with mouse neutrophils. As to the kind of experiment: Calcium flux in mouse neutrophils. The class given is cell-based. The following applies: PTX 250 ng/ml for 4 h. How it is done:
Preparation of Mouse Neutrophils. Neutrophils were obtained from the peritoneal cavity of wild type and gene knockout litter mates of F1 and F6 backcrosses of 129/sV FPR−/− mice with C57B1/6 mice 3-4 h after intraperitoneal injection of a 3% thioglycollate solution, as previously described (Gao J-L. et al. 1999 J Exp Med 189:657-662). The cell population was consistently composed of >90% neutrophils, as determined by light microscopy of DiffQuick-stained cytospins. Thus, hereafter we will refer to this cell preparation as neutrophils.
Calcium Flux Analysis. To monitor intracellular Ca^2+ concentration, adherent cells were harvested by incubation in phosphate-buffered saline at 37° C. for 15 min and then incubated in phosphate-buffered saline containing 2.5 μM Fura-2/AM at 37° C. for 45 min. […] Data were recorded every 200 ms as the relative ratio of fluorescence emitted at 510 nm following sequential excitation at 340 and 380 nm. The following ligands were evaluated: Aβ (nonfibrillated, human residues 1-42; California Peptide Research; Napa, Calif.), fMet-Leu-Phe (fMLF; Sigma), ATP (Life Technologies), and the chemokines RANTES (regulated upon activation normal T-cell expressed and secreted), SDF-1 (stromal cell-derived factor-1), 1-309, fractalkine, MIP-1α (macrophage inflammatory protein-1α), and KC (Peprotech, Rocky Hill, N.J.). […]
On the technique in general: Calcium flux is commonly read through the fluorescence of an indicator in the cells.

Turning to pertussis toxin, the “effect of pretreatment on Aβ induction of calcium flux” value is “completely blocked”.
